This is an account of results in patent publication US9670126B2, “Methods of making 15-hydroxy fatty acid derivatives” (Dignity Sciences Limited, priority 2013, dated 2017).

For data set [1] the following is noted: cited from earlier work.
A short description of data set [2]: Heat stability trial of HETrE under solvent removal conditions (reflux in 40% MtBE:cyclohexane), UPLC. The data set is classed as physicochemical. The procedure:
(§1) Previously, neat HETrE heated at 50° C.
A heat stability trial was conducted where a solution of HETrE (˜9.1 g) in 500 mL 40% MtBE: cyclohexane was heated at 75° C. (external oil bath temperature) at 400 mbar vacuum (condenser coolant temperature −0° C.). This established a gentle reflux. The solution was protected from light. Samples were withdrawn at various time points, under a nitrogen atmosphere, and analysed by UPLC (252 nm) (FIG. 15).
The conditions were designed to mimic the likely conditions encountered on a plant scale solvent removal from pooled column fractions. […] The reflux was extended over a further 112 hours.

Data set [3] is described as follows: Solubility (reactor cleaning). The note with it: residues.
Data set [4] can be described thus: Neat HETrE heated at 50° C. under vacuum. The data set is classed as physicochemical. The note with it: under vacuum (1822-129-4E), 1 major impurity, ester formed with itself. How it is done: as §1
A short description of data set [5]: Storage stability of freeze dried enzyme, judged in the DGLA reaction. The note with it: stored at ambient, atmospheric conditions for two weeks; then 1.8 Munits/g DGLA. How it is done:
It was also observed that the freeze dried enzyme supplied had good stability. Although recommended to be stored at −20° C., and desiccated after use, the batch was stored at ambient, atmospheric conditions for two weeks before being utilised in a reaction using the optimised enzyme loadings (1.8 Munits/g DGLA). […] The reaction was carried out in buffer solution to maintain pH and solubilise reaction components. Cysteine, a mild reducing agent, was used in place of sodium borohydride. Use of cysteine enabled the oxidation/reduction reaction to be carried out in one step. In addition no flammable hydrogen was generated during reaction/quench. Furthermore, fewer over-oxidation products were produced, likely due to cysteine's anti-oxidant properties. It is also believed that the addition of the reducing agent at beginning of the process helps to lessen irreversible enzyme inactivation by high concentrations of hydroperoxide, thus leading to lower enzyme requirement (e.g., cost savings) and lower potential for over-oxidation.

Turning to `N[C@@H](CSSC[C@H](N)C(=O)O)C(=O)O` [cystine], in data set [1] (1M HCl with heating), the “solubility in 1M HCl with heating” value was 50 mg/mL. Also, the “solubility in basic solutions” value in data set [1] (basic solutions) was “soluble”.
For the molecule `CCCCC[C@H](O)/C=C/C=C\C/C=C\CCCCCCC(=O)O` [15(S)-HETrE, 15-(S)-hydroxyeicosatrienoic acid], the “degradation on extended refluxing” value in data set [2] (4.5 days refluxing in 40% MtBE:cyclohexane, external temperature 75° C.) is on record as “did not cause significant degradation”. In addition, the “degradation under plant-typical solvent evaporation conditions” value in data set [2] (in solution and on hot surfaces, timescale of <2 days) was “no significant degradation”. In data set [3], the “solubility in alcohols such as ethanol and methanol, or acetone” value was “readily soluble”. The “degradation of neat material” value in data set [4] is on record as “showed degradation”.
For the molecule `N[C@@H](CS)C(=O)O` [Cysteine], in data set [1] (19° C.), the solubility in ethanol is reported as 1.5 g/100 g of ethanol.

B1: freeze dried enzyme: commercial freeze-dried soybean lipoxygenase (protein, UniProt P08170 1-839, looked up)
Seed linoleate …: MFSAGHKIKGTVVLMPKNELEVNPDGSAVDNLNAFLGRSVSLQLISATKADAHGKGKVGKDTFLEGINTSLPTLGAGESAFNIHFEWDGSMGIPGAFYIKNYMQVEFFLKSLTLEAISNQGTIRFVCNSWVYNTKLYKSVRIFFANHTYVPSETPAPLVSYREEELKSLRGNGTGERKEYDRIYDYDVYNDLGNPDKSEKLARPVLGGSSTFPYPRRGRTGRGPTVTDPNTEKQGEVFYVPRDENLGHLKSKDALEIGTKSLSQIVQPAFESAFDLKSTPIEFHSFQDVHDLYEGGIKLPRDVISTIIPLPVIKELYRTDGQHILKFPQPHVVQVSQSAWMTDEEFAREMIAGVNPCVIRGLEEFPPKSNLDPAIYGDQSSKITADSLDLDGYTMDEALGSRRLFMLDYHDIFMPYVRQINQLNSAKTYATRTILFLREDGTLKPVAIELSLPHSAGDLSAAVSQVVLPAKEGVESTIWLLAKAYVIVNDSCYHQLMSHWLNTHAAMEPFVIATHRHLSVLHPIYKLLTPHYRNNMNINALARQSLINANGIIETTFLPSKYSVEMSSAVYKNWVFTDQALPADLIKRGVAIKDPSTPHGVRLLIEDYPYAADGLEIWAAIKTWVQEYVPLYYARDDDVKNDSELQHWWKEAVEKGHGDLKDKPWWPKLQTLEDLVEVCLIIIWIASALHAAVNFGQYPYGGLIMNRPTASRRLLPEKGTPEYEEMINNHEKAYLRTITSKLPTLISLSVIEILSTHASDEVYLGQRDNPHWTSDSKALQAFQKFGNKLKEIEEKLVRRNNDPSLQGNRLGPVQLPYTLLYPSSEEGLTFRGIPNSISI
Take B1: in data set [5], the performance after storage entry is reported as “No deterioration in performance”.
